Like-named read-outs stand apart in the source and are kept apart here.
Legend:
[1] = tested on: H2444; experiment: Dose response study (Alamar Blue), H2444; assay type: cell-based; settings: Homo sapiens, read-out: IC50 H2444
Procedure: (§1) Dose response studies against 34 compounds from the pyridazinone and phenylfuran-carboxamide class were conducted. […] In addition, Tarceva was included in these dose response studies.
(§2) The dose response studies were done with the following standard procedure. First, the cells were counted and dispensed at 250 cells/well into 384-well microplates with compound. The cells were incubated for 48 hours at 37 C to complete treatment, and then alamar blue was added for an additional 48 hours. Finally, alamar blue reduction was measured and the data was loaded into ORIS, our data screening acquisition platform.

[2] = tested on: H460; experiment: Dose response study (Alamar Blue), H460; assay type: cell-based; settings: Homo sapiens, read-out: IC50 H460
Procedure: as §1, §2

[3] = tested on: H23; experiment: Dose response study (Alamar Blue), H23; assay type: cell-based; settings: Homo sapiens, read-out: IC50 H23
Procedure: as §1, §2

[4] = tested on: H1118; experiment: Non Small Cell Lung Cancer proliferation assay (Alamar Blue reduction), H1118; assay type: cell-based; settings: Homo sapiens, read-out: IC50 H1118
Procedure: Non Small Cell Lung Cancer Proliferation Assay. To perform the assay, the Non Small Cell Lung Cancer lines are diluted in media and plated into 384 well microplates at a final density of 250 cells in […]. To ensure consistency and minimal pipetting error, the cells are plated using the Multidrop 384 with the following settings: Rocker Switch set at 384, Volume 45 and Column 24.
Low Controls for this assay are made by treating Non Small Cell Lung Cancer cells with 5 ul of staurosporine at 250 uM in 10% DMSO and 1% SDS. [Final concentration in this assay is 25 uM staurosporine in 1% DMSO and 0.1% SDS.]
(§3) High Controls for this assay are made by treating Non Small Cell Lung Cancer cells with 5 ul of 10% DMSO. [Final concentration in this assay is 1% DMSO].
The remaining wells of the 384 microplate may be treated with different compounds depending on the study. Important Note: All compounds for testing in this assay should be done at the final concentration of 1% DMSO.
(§4) After addition, the cells are placed in cell culture incubator at 37° C. for 48 hours for complete treatment.
After drug treatment, cytotoxicity is measured by Alamar Blue reduction. 5 μL of Alamar Blue is added to the 384 microplates using the Flexdrop.
(§5) The cells are incubated for 48 hours at 37° C. to complete the Alamar Blue reduction.
(§6) The final step in the assay is to measure the amount of Alamar Blue reduction. […] The Alamar Blue fluorescence is measured at an excitation of 530 nm and emission of 590 nm.
(§7) For the NSCLC project, the cell based assay was screened against a small molecule library of approximately 200,000 compounds. The compound library is stored in our automated robotic freezer (Biophile) at −20° C. in 100% DMSO. Compound freeze and thaw cycles are kept to a minimum. Compounds for use are diluted into the appropriate concentration and plated into 384 well microplates using our custom built low volume 384-well head tool (TPS 384, Apricot Designs Inc., CA, USA). This assay was performed on a fully automated linear track robotic platform (CRS F3 Robot System, Thermo Electron Corp., Ontario, Canada) utilizing several integrated peripherals for plate handling, liquid dispensing, and readout detection. First, non-small cell lung cancer cell lines are dispensed into 384 well microplates (Corning #3712 Tissue Culture Treated Plate, Corning, N.Y., USA) with 5 μL of test compounds at 100 uM in 10% DMSO for screening studies or 1 mM in 10% DMSO to 50 nM in 10% DMSO for dose response studies. The microplates are then placed at 37° C. for 48 hours to complete treatment of cells with compounds. Next, 5 ul of alamar blue was added using a liquid dispenser (Flexprop Precision Dispenser, Perkin Elmer, Mass., USA) and incubated for 48 hours at 37° C. The alamar blue prompt fluorescence was measured on Victor V (Victor^3 V, Perkin Elmer, Mass., USA) and output data files were loaded into ORIS (Oncology Research Informatics System, MSKCC, NY, USA), a screening data acquisition and analysis platform.
as §2

[5] = tested on: H1734; experiment: Non Small Cell Lung Cancer proliferation assay (Alamar Blue reduction), H1734; assay type: cell-based, human; settings: Homo sapiens
Procedure: These cells have a doubling time of 1-2 days. All cell types are adherent and grow in colonies. The cells should be kept at a density between 50,000 cells/mL -500,000 cells/mL to provide for optimum growth and adequate nutrition. The cell line should be maintained at 37° C. in a humidified atmosphere with 5% CO2 in a sterile cell culture incubator.
Non Small Cell Lung Cancer Proliferation Assay.
as §3
Important Note: All compounds for testing in this assay should be done at the final concentration of 1% DMSO.
as §4
After drug treatment, cytotoxicity is measured by Alamar Blue reduction.
as §5, §6
as §7, with “Compounds for use are diluted into the appropriate concentration and plated into 384 well microplates using our custom built low volume 384-well head tool (TPS 384, Apricot Designs Inc., CA, USA).” left out, “First, non-small cell lung cancer cell lines are dispensed into 384 well microplates (Corning #3712 Tissue Culture Treated Plate, Corning, N.Y., USA) with 5 μL of test compounds at 100 uM in 10% DMSO for screening studies or 1 mM in 10% DMSO to 50 nM in 10% DMSO for dose response studies.” left out
as §2

[6] = NCI-H2444, H2444, 12 point doubling dilution 10 uM to 5 nM, 48 h treatment, alamar blue additional 48 h
[7] = NCI-H460, H460, 12 point doubling dilution 10 uM to 5 nM, 48 h treatment, alamar blue additional 48 h
[8] = NCI-H23, H23, 12 point doubling dilution 10 uM to 5 nM, 48 h treatment, alamar blue additional 48 h
[9] = H1118, 12 point doubling dilution 10 uM to 5 nM, 48 h treatment, alamar blue additional 48 h
[10] = NCI-H1734, H1734, 12 point doubling dilution 10 uM to 5 nM, 48 h treatment, alamar blue additional 48 h, read-out: IC50 H1734
[11] = NCI-H1734, 48 h, H1734, 12 point doubling dilution 10 uM to 5 nM, 48 h treatment, alamar blue additional 48 h, read-out: IC50 H1734
[12] = NCI-H1734, read-out: Dose Response (uM) H1734

Row | Structure (SMILES) | IC50 [1, 6] [µM] | IC50 [2, 7] [µM] | IC50 [3, 8] [µM] | IC50 [4, 9] [µM] | IC50 [5, 10] [µM] | IC50 ([1]; NCI-H2444, 48 h) [µM] | IC50 ([2]; NCI-H460, 48 h) [µM] | IC50 ([3]; NCI-H23, 48 h) [µM] | IC50 ([4]; 48 h) [µM] | IC50 [5, 11] [µM] | IC50 [5, 12] [µM]
1 | Cc1cccc(NC(=O)c2ccc([N+](=O)[O-])o2)c1 [compound 71762] | 3.8 | 1.85 | 0.83 | 0.38 | 4.88 |  |  |  |  |  | 
2 | O=C(Nc1ccc(F)c(Cl)c1)c1ccc([N+](=O)[O-])o1 [compound 87200] | > 10 | > 10 | 4.55 | 4.33 | > 10 |  |  |  |  |  | 
3 | Cc1ccc(NC(=O)c2ccc([N+](=O)[O-])o2)cc1 [compound 98697] |  |  |  |  |  | 4.79 | 2.2 | 0.91 | 0.56 | 4.42 | 
4 | O=C(Nc1ccc(Cl)cc1)c1ccc([N+](=O)[O-])o1 [compound 98698, 5-nitro-furan-2-carboxylic acid (4-chloro-phenyl)-amide] |  |  |  |  |  | 2.43 | 1.62 | 0.6 | 0.53 | 3.47 | 
5 | COc1nn(-c2cccc(C)c2)c(=O)c(Cl)c1Cl [compound 257028] | 1.17 | 5.23 | 0.68 | 1.1 | 3.87 |  |  |  |  |  | 2.42
6 | O=c1c(Cl)c(Cl)cnn1-c1ccc(C(F)(F)F)cc1 [compound 267060] | 1.26 | 4.26 | 1.07 | 1.66 | 5.23 |  |  |  |  |  | 1.6
7 | COc1cccc(-n2ncc(Cl)c(Cl)c2=O)c1 [compound 267061] | 0.37 | 1.63 | 0.28 | 0.4 | 3.04 |  |  |  |  |  | 2.41
8 | CCc1cccc(-n2ncc(Cl)c(Cl)c2=O)c1 [compound 267062] | 0.43 | 2.88 | 0.39 | 0.67 | 2.89 |  |  |  |  |  | 1.75
9 | CCCCc1cccc(-n2ncc(Cl)c(Cl)c2=O)c1 [compound 267063] |  | > 10 | 5.47 | 6.41 | > 10 |  |  |  |  |  | 3.25
10 | Cc1cc(-n2ncc(Cl)c(Cl)c2=O)ccc1Br [compound 267064] | 6.41 | > 10 | 5.75 | > 10 | > 10 |  |  |  |  |  | 1.21
11 | Cc1cc(-n2ncc(Cl)c(Cl)c2=O)ccc1Cl [compound 267065] | 6.37 | > 10 | 6.96 | > 10 | > 10 |  |  |  |  |  | > 10
12 | O=c1c(Cl)c(Cl)cnn1-c1ccc2c(c1)CCC2 [compound 267066] | 1.53 | 6.56 | 2.04 | 2.73 | 8.85 |  |  |  |  |  | 1.45
13 | Cc1nc2cc(-n3ncc(Cl)c(Cl)c3=O)ccc2s1 [compound 267067] | 6.92 | > 10 | 5.68 | > 10 | > 10 |  |  |  |  |  | 2.57
14 | O=c1c(Cl)c(Cl)cnn1-c1ccc2c(c1)OCCO2 [compound 267068] | 0.41 | 1.97 | 0.29 | 0.48 | 2.83 |  |  |  |  |  | 2.12
15 | O=c1c(Cl)c(Cl)cnn1Cc1ccccc1 [compound 267069] | 4.13 | > 10 | 2.53 | 3.21 | > 10 |  |  |  |  |  | 6.86
16 | Cc1ccc(-n2ncc(Cl)c(Cl)c2=O)cc1Cl [compound 267070] | > 10 | > 10 | > 10 | > 10 | > 10 |  |  |  |  |  | 2.69
17 | Cc1cccc(-n2ncc(Br)c(Br)c2=O)c1 [compound 267071] | 0.31 | 1.43 | 0.26 | 0.41 | 1.72 |  |  |  |  |  | 0.8
18 | O=c1c(Br)c(Br)cnn1-c1cccc(C(F)(F)F)c1 [compound 267072] | 1.05 | 2.76 | 0.84 | 1.21 | 3.19 |  |  |  |  |  | 0.51
19 | O=c1c(Br)c(Br)cnn1-c1ccccn1 [compound 267073] | 0.13 | 0.42 | 0.07 | 0.1 | 1.23 |  |  |  |  |  | 0.72
20 | O=c1c(Cl)c(Cl)cnn1-c1ccc(Cl)cc1Cl [compound 267077] | 4.68 | > 10 | 1.72 | 3.73 | > 10 |  |  |  |  |  | 0.52
21 | COc1cccc(-n2ncc(Br)c(Br)c2=O)c1 [compound 267083] | 0.28 | 0.91 | 0.21 | 0.27 | 1.36 |  |  |  |  |  | 1.31
22 | COCCOc1cccc(-n2ncc(Br)c(Br)c2=O)c1 [compound 267084] | 0.23 | 0.89 | 0.17 | 0.23 | 1.5 |  |  |  |  |  | 1.63
23 | Cc1cccc(-n2ncc(I)c(I)c2=O)c1 [compound 267085] | 0.53 | 3.49 | 0.72 | 1.03 | 2.99 |  |  |  |  |  | 1.94
24 | O=c1c(Cl)c(Cl)cnn1-c1ccccn1 [compound 267090] | 0.22 | 0.79 | 0.08 | 0.15 | 2.47 |  |  |  |  |  | 1.1
25 | NCCCOc1cccc(-n2ncc(Br)c(Br)c2=O)c1 [compound 273634] | 0.4 | 1.47 | 0.38 | 0.57 | 1.23 |  |  |  |  |  | 0.93

— patent US20100210649A1, “PYRIDAZINONES AND FURAN-CONTAINING COMPOUNDS” (Sloan-Kettering Institute for Cancer Research, priority 2006, published 2010)
